As a reminder, the pIC50 is −log10 of the IC50, conventionally taken in molar units. The term solubility denotes the concentration that dissolves in the medium under given conditions. Lower therefore signals a poorly soluble substance.

These results are taken from patent publication US20260217698A1 (BEYANG THERAPEUTICS CO., LTD., priority 2022, published 2026).

One series deals with T1, VEGFR1 (Homo sapiens, UniProt P17948).
T1 construct: purchased Invitrogen PR6731B
The series can be described thus: Kinase inhibition, Mobility Shift Assay/IMAP, VEGFR1. It is filed as biochemical. The method, boiled down: (§1)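 Substrate conversion (phosphorylated vs non-phosphorylated) read by mobility shift on Caliper EZ Reader II and converted to % inhibition relative to no-enzyme and DMSO controls. IC50 fitted from % inhibition versus log compound concentration.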

The target of another series is T2, VEGFR3 (Homo sapiens, UniProt P35916).
T2 construct: purchased Invitrogen PV4129
T2 sequence (P35916 25-1363): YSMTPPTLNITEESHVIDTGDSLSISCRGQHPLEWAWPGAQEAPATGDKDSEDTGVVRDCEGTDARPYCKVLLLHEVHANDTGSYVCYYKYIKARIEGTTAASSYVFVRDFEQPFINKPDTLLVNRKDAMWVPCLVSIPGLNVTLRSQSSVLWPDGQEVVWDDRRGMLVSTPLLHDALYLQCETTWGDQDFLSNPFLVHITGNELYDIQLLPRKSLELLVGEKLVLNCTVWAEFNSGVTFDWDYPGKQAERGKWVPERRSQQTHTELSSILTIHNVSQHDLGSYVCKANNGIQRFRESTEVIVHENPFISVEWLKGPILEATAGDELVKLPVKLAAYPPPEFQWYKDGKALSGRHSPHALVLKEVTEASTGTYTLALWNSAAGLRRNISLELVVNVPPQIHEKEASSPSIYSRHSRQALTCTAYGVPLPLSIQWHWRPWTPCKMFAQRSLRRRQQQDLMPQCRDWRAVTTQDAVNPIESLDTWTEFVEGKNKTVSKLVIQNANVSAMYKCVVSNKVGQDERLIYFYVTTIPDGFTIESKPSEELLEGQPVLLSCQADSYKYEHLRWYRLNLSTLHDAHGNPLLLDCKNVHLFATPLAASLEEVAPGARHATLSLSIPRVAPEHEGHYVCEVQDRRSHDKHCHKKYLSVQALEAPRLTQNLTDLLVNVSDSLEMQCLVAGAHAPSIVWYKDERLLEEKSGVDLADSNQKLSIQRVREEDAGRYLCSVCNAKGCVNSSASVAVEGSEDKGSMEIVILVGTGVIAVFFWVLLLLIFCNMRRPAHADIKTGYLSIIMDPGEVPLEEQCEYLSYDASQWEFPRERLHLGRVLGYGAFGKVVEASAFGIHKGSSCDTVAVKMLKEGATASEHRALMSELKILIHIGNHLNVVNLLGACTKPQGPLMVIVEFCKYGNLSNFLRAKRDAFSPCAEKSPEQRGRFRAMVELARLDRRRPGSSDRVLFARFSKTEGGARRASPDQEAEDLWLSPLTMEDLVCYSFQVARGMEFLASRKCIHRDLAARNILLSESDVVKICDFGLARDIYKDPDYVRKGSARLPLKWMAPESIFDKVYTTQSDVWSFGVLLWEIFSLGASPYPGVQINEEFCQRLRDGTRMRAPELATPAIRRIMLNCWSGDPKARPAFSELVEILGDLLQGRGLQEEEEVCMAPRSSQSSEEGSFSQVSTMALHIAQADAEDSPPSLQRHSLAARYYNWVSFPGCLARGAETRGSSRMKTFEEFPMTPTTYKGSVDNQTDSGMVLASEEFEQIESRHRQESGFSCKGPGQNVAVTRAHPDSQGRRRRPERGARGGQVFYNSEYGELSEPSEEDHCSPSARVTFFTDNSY
The experiment in a line: Kinase inhibition, Mobility Shift Assay/IMAP, VEGFR3. It is filed as biochemical. The method, boiled down:
as §1

For the next series, the target named is T3, TIE2 (Homo sapiens, UniProt Q02763).
T3 construct: purchased BPS 40270
T3 sequence (Q02763 23-1124): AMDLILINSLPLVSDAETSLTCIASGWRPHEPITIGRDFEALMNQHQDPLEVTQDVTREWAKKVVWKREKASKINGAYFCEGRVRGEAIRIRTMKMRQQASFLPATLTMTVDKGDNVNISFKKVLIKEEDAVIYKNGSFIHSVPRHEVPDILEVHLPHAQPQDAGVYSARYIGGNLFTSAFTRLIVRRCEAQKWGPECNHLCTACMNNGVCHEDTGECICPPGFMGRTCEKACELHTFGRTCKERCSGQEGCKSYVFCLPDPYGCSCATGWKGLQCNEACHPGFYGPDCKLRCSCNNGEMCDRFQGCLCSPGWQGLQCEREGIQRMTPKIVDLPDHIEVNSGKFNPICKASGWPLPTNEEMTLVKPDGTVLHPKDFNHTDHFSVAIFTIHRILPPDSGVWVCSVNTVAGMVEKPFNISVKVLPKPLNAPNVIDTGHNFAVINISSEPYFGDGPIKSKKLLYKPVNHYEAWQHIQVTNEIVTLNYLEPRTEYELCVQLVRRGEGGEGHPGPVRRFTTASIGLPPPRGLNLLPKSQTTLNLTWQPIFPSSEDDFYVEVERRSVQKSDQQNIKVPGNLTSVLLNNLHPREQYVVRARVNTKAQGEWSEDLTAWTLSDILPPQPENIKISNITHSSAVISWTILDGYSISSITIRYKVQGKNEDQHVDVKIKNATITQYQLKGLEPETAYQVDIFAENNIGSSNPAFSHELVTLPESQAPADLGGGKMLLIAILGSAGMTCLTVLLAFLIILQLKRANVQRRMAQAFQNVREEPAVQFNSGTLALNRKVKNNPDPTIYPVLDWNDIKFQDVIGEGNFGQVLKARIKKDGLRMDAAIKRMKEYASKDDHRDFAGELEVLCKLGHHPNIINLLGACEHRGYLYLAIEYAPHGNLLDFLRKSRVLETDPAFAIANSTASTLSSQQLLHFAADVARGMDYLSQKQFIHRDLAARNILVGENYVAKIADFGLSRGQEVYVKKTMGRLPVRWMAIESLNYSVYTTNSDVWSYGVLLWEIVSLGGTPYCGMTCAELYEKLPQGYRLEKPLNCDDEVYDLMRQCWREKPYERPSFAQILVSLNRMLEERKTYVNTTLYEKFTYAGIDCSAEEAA
The experiment in a line: Kinase inhibition, Mobility Shift Assay/IMAP, TIE2. The series is classed as biochemical. A digest of the protocol:
as §1

The next series has as its target T4, EGFR (Homo sapiens, UniProt P00533).
T4 construct: purchased Carna 08-115
The experiment in a line: Kinase inhibition, Mobility Shift Assay/IMAP, EGFR. It is filed as biochemical. A digest of the protocol: as §1

Series [1] is described as follows: Solubility test in buffer, LC-MS. The settings on record: aqueous buffer, thermodynamic from solid, room temperature, shaking 8 h, pH not given (method: pH 2.0, 6.5, 7.4). The series is classed as physicochemical. Here is the method: Accurately weigh 3 portions of about 2 mg of the compound, and add appropriate volumes of buffers with the pHs of 2.0, 6.5, and 7.4 respectively to obtain a solution with a concentration of 2 mg/mL. After sonication for 10 min, fix them on a shaker and shaking for 8 h at room temperature. After shaking, sonicate for 10 min and centrifuge for 15 min at 13,000 rpm. Pipette 0.1 mL of supernatant into a new tube, shake and rinse it with 5 mL, and discard the liquid. Transfer 0.5 mL of the supernatant again to a new tube, centrifuge it for 15 min at 13,000 rpm, then collect the supernatant (if necessary, dilute with water) and analyze it by LC-MS. The sample concentrations at 3~5 points are subjected to fitting and reticle for quantification.

In the next series the test system is melanin. The experiment in a line: Binding capacity of compounds to melanin. It is filed as in vitro ADME, cuttlefish (Sepia officinalis). The settings on record: cuttlefish (Sepia officinalis), melanin suspension (1 mg/mL); 1 mg/mL melanin in PBS pH 7.4, 2 μM compound, 2 h at 37° C.; read-out: Fu % (percentage of free drug). The method, boiled down: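 Compound (2 μM final) incubated with washed Sepia melanin (1 mg/mL, PBS pH 7.4) 2 h at 37° C with shaking; PBS with 0.1% BSA served as blank. Supernatants quantified by LC-MS/MS; bound fraction Fb derived from melanin versus blank concentration.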

Series [2] concerns the target T5, VEGFR2 (Homo sapiens, UniProt P35968). The series can be described thus: Kinase inhibition, Mobility Shift Assay/IMAP, VEGFR2. It is filed as biochemical. Also on record: purchased Carna 08-191. A digest of the protocol: as §1
Target sequence in this assay (P35968 790-1356 limits assumed): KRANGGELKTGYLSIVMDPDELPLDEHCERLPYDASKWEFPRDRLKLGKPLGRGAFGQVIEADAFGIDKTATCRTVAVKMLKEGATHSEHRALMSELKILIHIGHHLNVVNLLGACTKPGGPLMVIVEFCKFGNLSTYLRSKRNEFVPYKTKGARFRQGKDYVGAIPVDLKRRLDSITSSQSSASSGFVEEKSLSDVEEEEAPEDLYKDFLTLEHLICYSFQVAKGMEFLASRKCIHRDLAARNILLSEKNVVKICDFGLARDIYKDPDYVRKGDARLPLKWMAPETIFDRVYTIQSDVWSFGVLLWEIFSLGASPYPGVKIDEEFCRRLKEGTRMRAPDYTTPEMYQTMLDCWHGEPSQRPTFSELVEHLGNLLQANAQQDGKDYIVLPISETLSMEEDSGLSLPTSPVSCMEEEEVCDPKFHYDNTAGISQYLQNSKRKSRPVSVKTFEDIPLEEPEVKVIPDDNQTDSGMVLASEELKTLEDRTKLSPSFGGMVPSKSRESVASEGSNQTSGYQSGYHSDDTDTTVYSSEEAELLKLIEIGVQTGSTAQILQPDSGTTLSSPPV
Series [3] deals with T5, VEGFR2. The experiment in a line: Inhibition of VEGF-induced VEGFR2 autophosphorylation (pVEGFR2) in HUVEC cells, ELISA. The series is classed as cell-based. Further details: endogenous in cells; host or cells: HUVEC. The settings on record: 50 ng/mL human VEGF, compound 1 h. From the text: Vascular endothelial growth factor receptor 2 (VEGFR2) is a primary receptor for VEGF-induced endothelial cell signaling. After ligand binding, VEGFR2 is autophosphorylated and activated. The main function of signaling from VEGFR2 is to induce vascularization during development and after tissue injury, and to bypass blocked blood vessels. Pathologically, VEGF and VEGFR2 are involved in tumor angiogenesis and vascular leakage. They are considered to be main participants in many different cancers and ocular diseases that accompany pathological neovascularization. This assay measured the ability of the compounds to inhibit VEGF-induced VEGFR2 autophosphorylation (pVEGFR2) in HUVEC cells by using ELISA.
Culture cells in a cell culture flask to reach a fusion degree of 60%-80% before cell inoculation. Dilute the cell suspension to […] with a pre-warmed complete medium. Add 80 μL of the cell suspension to all wells of a 96-well cell plate (Corning-3599); and incubate the plate overnight at 37° C. in the presence of 5% CO2. Dissolve the compound powder to 10 mM with DMSO and store it in a nitrogen cabinet. Compound dilution plate: Add a reference compound Ponatinib or a compound to be tested to a 96 V-well plate (Axygen-WIPP 2280) at concentrations achieved as follows: performing 3-fold gradient dilution starting from 5 mM (5 μL of 10 mM compound solution plus 5 μL of DMSO) for a total of 8 concentration points. […] Transfer 20 μL of the diluted compound from the intermediate plate to a cell plate. Then, incubate the cell plate for 1 h at 37° C. in the presence of 5% CO2. After the compound was treated for 1 h, add 25 μL of 250 ng/ml human VEGF at a final concentration of 50 ng/mL to a 96-well plate; and incubate the plate for 5 min at 37° C. in the presence of 5% CO2, centrifuge the plate for 10 min at 3,000 rpm, remove the medium and wash the cells once with 300 μL of pre-chilled DPBS per well. Then, centrifuge the plate for 10 min at 4,000 rpm, remove DPBS, and add 110 μL of pre-chilled 1× cell lysis buffer per well to the 96-well plate. Shake the plate for 40 min at 4° C. Then, freeze the plate in a refrigerator at −80° C. On the next day, remove the plate from the refrigerator at −80° C., thaw the plate, centrifuge the plate for 10 min at 3500 rpm, and add 100 μL of the supernatant per well to an ELISA plate. Seal the plate and incubate it for 2 h at 37° C. Wash the wells 4 times with 1× wash buffer. Add 100 μL of recombinant detection antibody per well. Seal the plate, incubate the plate for 1 h at 37° C., and repeat the step of plate washing. Add 100 μL of secondary antibody per well. Seal the plate, incubate the plate for 30 min at 37° C., and repeat the step of plate washing. Add 100 μL of TMB (protected from light) per well. Seal the plate, incubate the plate for 30 min at 37° C., and add 100 μL of the stop solution per well. Gently shake for 30 sec, measure the absorbance with a SpectraMax® 340 PC 384 Absorbance Microplate Reader within 30 min, and read an optical density value at 450 nm. Conduct data analysis using XL Fit software:
Conduct curve fitting using the 4 Parameter Logistic Model or Sigmoidal Dose-Response Model to obtain IC50 values.
X indicates the log value of compound concentration, Y indicates the inhibition rate (% inhibition), Top indicates the readout of the negative control wells, and Bottom indicates the readout of the positive control well.
Target sequence in this assay (P35968 20-1356): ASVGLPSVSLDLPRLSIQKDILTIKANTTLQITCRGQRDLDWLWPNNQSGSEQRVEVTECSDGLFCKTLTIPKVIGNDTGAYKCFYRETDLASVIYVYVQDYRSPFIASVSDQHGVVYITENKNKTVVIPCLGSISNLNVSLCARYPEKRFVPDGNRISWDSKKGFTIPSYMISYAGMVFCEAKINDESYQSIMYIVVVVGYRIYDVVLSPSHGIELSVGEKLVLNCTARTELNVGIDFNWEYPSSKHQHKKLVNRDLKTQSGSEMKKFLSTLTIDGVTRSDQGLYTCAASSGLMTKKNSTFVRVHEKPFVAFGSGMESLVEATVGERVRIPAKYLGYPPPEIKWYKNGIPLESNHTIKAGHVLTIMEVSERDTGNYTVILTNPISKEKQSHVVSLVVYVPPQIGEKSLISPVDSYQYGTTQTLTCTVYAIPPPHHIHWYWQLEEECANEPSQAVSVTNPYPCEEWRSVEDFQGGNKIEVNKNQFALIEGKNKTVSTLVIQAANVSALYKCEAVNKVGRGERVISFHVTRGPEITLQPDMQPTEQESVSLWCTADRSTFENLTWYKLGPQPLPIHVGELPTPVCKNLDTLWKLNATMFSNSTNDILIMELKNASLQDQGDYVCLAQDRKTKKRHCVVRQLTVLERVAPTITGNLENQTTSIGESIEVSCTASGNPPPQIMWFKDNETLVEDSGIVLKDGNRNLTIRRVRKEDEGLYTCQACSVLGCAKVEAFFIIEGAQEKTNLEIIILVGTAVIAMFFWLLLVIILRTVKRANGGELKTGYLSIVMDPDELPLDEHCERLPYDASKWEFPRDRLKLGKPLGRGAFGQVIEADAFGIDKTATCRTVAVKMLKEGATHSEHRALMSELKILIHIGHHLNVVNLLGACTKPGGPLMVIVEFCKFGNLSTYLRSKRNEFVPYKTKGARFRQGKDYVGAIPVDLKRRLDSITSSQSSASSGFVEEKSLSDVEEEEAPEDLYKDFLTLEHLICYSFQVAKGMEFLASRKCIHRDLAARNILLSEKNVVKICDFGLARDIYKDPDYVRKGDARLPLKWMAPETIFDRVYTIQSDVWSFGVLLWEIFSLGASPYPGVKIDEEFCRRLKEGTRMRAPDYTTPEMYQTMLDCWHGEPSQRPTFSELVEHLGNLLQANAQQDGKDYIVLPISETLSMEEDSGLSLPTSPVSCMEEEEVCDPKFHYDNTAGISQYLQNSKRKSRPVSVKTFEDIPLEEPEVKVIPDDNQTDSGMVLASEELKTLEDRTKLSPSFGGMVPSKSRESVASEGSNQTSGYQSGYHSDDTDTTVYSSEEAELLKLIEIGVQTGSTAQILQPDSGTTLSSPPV
In general terms: An ELISA detects its analyte on a solid surface through an enzyme-linked reagent.

SMILES strings stand for the structures. pIC50: −log10 of the molar value. Converted amounts (≈) assume the structure as drawn.

T4 sequence (P00533 669-1210 limits assumed): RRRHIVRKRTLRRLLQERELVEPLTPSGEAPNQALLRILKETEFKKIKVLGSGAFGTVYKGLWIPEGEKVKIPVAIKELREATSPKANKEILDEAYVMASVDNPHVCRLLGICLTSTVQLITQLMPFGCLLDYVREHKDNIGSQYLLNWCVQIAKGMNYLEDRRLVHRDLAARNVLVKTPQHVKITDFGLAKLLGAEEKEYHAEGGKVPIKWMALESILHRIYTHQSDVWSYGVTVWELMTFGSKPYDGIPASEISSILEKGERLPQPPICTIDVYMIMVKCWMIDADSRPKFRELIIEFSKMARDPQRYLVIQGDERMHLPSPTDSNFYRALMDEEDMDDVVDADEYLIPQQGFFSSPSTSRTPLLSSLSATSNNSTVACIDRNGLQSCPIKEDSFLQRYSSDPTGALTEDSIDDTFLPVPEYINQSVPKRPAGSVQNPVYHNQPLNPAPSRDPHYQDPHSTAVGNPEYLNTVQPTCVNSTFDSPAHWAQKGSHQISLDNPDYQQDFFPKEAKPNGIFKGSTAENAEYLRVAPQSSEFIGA

With `CN1CCN(CCCNC(=O)Nc2snc(OCc3ccc(F)c(C(=O)NC4CC4)c3)c2C(N)=O)CC1` [Compound T078, 3-[[3-(cyclopropylcarbamoyl)-4-fluoro-phenyl]methoxy]-5-[3-(4-methylpiperazin-1-yl)propylcarbamoylamino]isothiazole-4-carboxamide], the pIC50 at VEGFR1 is 8.24; at VEGFR3, 7.77; at TIE2, 5.39; on EGFR, 4.79; on VEGFR2 [2], 8.68; at VEGFR2 [3] it was 7.25. Besides, in series [1], the concentration in solution (solubility at 8 h) was 800 µg/mL (≈ 1500 µM). Further, in the series on melanin, the fraction unbound at 2 h, 2 μM amounted to 0.0241.

Take `NC(=O)c1c(OCc2cc(C(=O)NC3CC3)ccc2F)nsc1NC(=O)NCCCN1CCCC1` [Compound T098, 3-((5-(cyclopropylcarbamoyl)-2-fluorobenzyl)oxy)-5-(3-(3-(pyrrolidin-1-yl)propyl)ureido)isothiazole-4-carboxamide]: the pIC50 was 5.31 at TIE2, 4.78 on EGFR, 8.81 at VEGFR2 [2] and 6.88 against VEGFR2 [3]. In the series on melanin, the fraction unbound at 2 h, 2 μM came to 0.0666.

As for `NC(=O)c1c(OCc2cc(C(=O)NC3CC3)c(F)cc2F)nsc1NC(=O)NCCCCN1CCCC1` [Compound T128, 3-[[5-(cyclopropylcarbamoyl)-2,4-difluoro-phenyl]methoxy]-5-(4-pyrrolidin-1-ylbutylcarbamoylamino)isothiazole-4-carboxamide], the values for the negative logarithm of the IC50 (pIC50) on TIE2, on VEGFR2 [2] and against VEGFR2 [3] were 5.93, 8.92 and 8.31, respectively.

On to `NC(=O)c1c(OCc2c(F)cc3c(c2F)OCC3)nsc1NC(=O)NCCCCN1CCCC1` [Compound T129, 3-[(5,7-difluoro-2,3-dihydrobenzofuran-6-yl)methoxy]-5-(4-pyrrolidin-1-ylbutylcarbamoylamino)isothiazole-4-carboxamide], for which the pIC50 on EGFR was 4.81; at VEGFR2 [2], 7.92; against VEGFR2 [3] it was 7.15. The fraction unbound at 2 h, 2 μM with melanin came to 0.0889.

For `COc1ccc(F)c(COc2nsc(NC(=O)NCCCCN3CCCCC3)c2C(N)=O)c1F` [Compound T131, 3-[(2,6-difluoro-3-methoxy-phenyl)methoxy]-5-[4-(1-piperidyl)butylcarbamoylamino]isothiazole-4-carboxamide], the negative logarithm of the IC50 (pIC50) at EGFR is 4.82; at VEGFR2 [2], 7.76; on VEGFR2 [3] it was 7.72. This molecule also displayed a solubility at 8 h in series [1] of 278 µg/mL (≈ 559 µM). In addition, the fraction unbound at 2 h, 2 μM in the series on melanin stood at 0.0629.

`NC(=O)c1c(OCc2c(F)cc3c(c2F)OCC3)nsc1NC(=O)NCCCCN1CC[C@H](O)C1` [Compound T134, 3-[(5,7-difluoro-2,3-dihydrobenzofuran-6-yl)methoxy]-5-[4-[(3S)-3-hydroxypyrrolidin-1-yl]butylcarbamoylamino]isothiazole-4-carboxamide]: the pIC50 at EGFR is 4.69; at VEGFR2 [2] it was 8.18; against VEGFR2 [3] it was 7.80. The fraction unbound at 2 h, 2 μM with melanin was found to be 0.0401.

As for `COc1cc(OC)c(F)c(COc2nsc(NC(=O)NCCC3CCN(C)CC3)c2C(N)=O)c1F` [Compound T145, 3-[(2,6-difluoro-3,5-dimethoxy-phenyl)methoxy]-5-[2-(1-methyl-4-piperidyl)ethylcarbamoylamino]isothiazole-4-carboxamide], the figures for the pIC50 on EGFR, at VEGFR2 [2] and against VEGFR2 [3] were less than 4.22, 8.86 and 8.66, respectively. The fraction unbound at 2 h, 2 μM in the series on melanin was 0.0437.

On to `CN1CCN(CCNC(=O)Nc2snc(OCc3ccc(F)c(C(=O)NC4CC4)c3)c2C(N)=O)CC1` [Compound T149, 3-[[3-(cyclopropylcarbamoyl)-4-fluoro-phenyl]methoxy]-5-[2-(4-methylpiperazin-1-yl)ethylcarbamoylamino]isothiazole-4-carboxamide], for which the pIC50 at VEGFR1 was 8.62; on VEGFR3 it was 8.00; at EGFR it was 4.92; at VEGFR2 [2], 8.63; on VEGFR2 [3], 7.28. Also, the solubility at 8 h in series [1] turned out to be 1580 µg/mL (≈ 3040 µM).

In the case of `NC(=O)c1c(OCc2ccc(F)c(C(=O)NC3CC3)c2)nsc1NC(=O)NCCCCN1CCCC1` [Compound T151, 3-[[3-(cyclopropylcarbamoyl)-4-fluoro-phenyl]methoxy]-5-(4-pyrrolidin-1-ylbutylcarbamoylamino)isothiazole-4-carboxamide], the pIC50 on VEGFR1 was 8.82; at VEGFR3, 8.41; at EGFR it was 4.97; on VEGFR2 [2] it was 8.76; against VEGFR2 [3], 7.16. In series [1], this molecule gave a solubility at 8 h of 1340 µg/mL (≈ 2590 µM).
